Patent US20240010659A1, “NEW THIADIAZOLOPYRIMIDONE DERIVATIVES” (Hoffmann-La Roche Inc., priority 2021, published 2024)

These compounds were tested on mutant HTT protein (mHTT) (assay: Homogeneous Time Resolved Fluorescence (HTRF) assay for HTT lowering in GENEAe020-A cells). Settings: reduction of mHTT in Huntington patient human cells (GENEAe020-A cell line), 48 hours incubation, mean from three replicates.
Type: cell-based
Description: Homogeneous Time Resolved Fluorescence for HTT Lowering
The HTRF assay was adapted from Weiss et al. (Analytical Biochemistry Volume 395, Issue 1, 1 Dec. 2009, Pages 8-15 and Analytical Biochemistry Volume 410, 2011, Pages 304-306) to cells from GENEAe020-A cell line (https://hpscreg.eu/cell-line/GENEAe020-A).
Compounds were tested for the effect of mutant HTT levels in Huntington patient human cells (GENEAe020-A cell line) using Homogeneous Time Resolved Fluorescence (HTRF) directed towards mutant HTT protein (mHTT). The GENEAe020-A cell line was derived by Genea Biocells from human blastocysts of HD donors. After assessing viability, cells were plated into 384 well collagen coated plates in growth media. Once cells adhered, media was removed and test compounds dissolved in DMSO were diluted with buffer solution and added to the adherent cells. Controls included experiments with no cells, DMSO with no compound, and Hsp90 inhibitor control. Cells were incubated with compounds and controls for 48 hours. Then, the cells were lysed and transferred to an assay plate containing HTRF labeled monoclonal antibodies developed by Paul Patterson (Ko et al., Brain Research Bulletin, Volume 56, Numbers 3 and 4, 2001, Pages 319-329) which recognize specific areas of the HTT protein. The terbium labeled “donor” antibody (2B7) binds to the N-terminus of the HTT protein and the Alexa488 labeled “acceptor” antibody (MW1) is specific for the polyglutamine region of the protein. Binding of the acceptor labeled antibody is more efficient for the extended polyglutamine repeats of mutant HTT protein which translates into a signal boost which enables the specific measurement of mutant HTT protein level. The HTRF donor and acceptor detection reagents were incubated with the cell lysate and the ratio between the signals of the two fluorophores is indicative of the relative quantities of mHTT.

Point of comparison: `Cc1cn2nc(-c3cc(=O)n4nc(C5CCNC5)sc4n3)cc(C)c2n1` (stereo not drawn) [Example 10, 7-(2,8-dimethylimidazo[1,2-b]pyridazin-6-yl)-2-pyrrolidin-3-yl-[1,3,4]thiadiazolo[3,2-a]pyrimidin-5-one], EC50 5220 nM. Against it:
- Cc1cn2nc(-c3cc(=O)n4nc(C5CCNC6(CC6)C5)sc4n3)cc(C)c2n1 (stereo not drawn) [Example 7, 2-(4-azaspiro[2.5]octan-7-yl)-7-(2,8-dimethylimidazo[1,2-b]pyridazin-6-yl)-[1,3,4]thiadiazolo[3,2-a]pyrimidin-5-one] — 17-fold lower, 302 nM
- Cc1cn2nc(-c3cc(=O)n4nc(C5CCNCC5)sc4n3)cc(C)c2n1 [Example 2, 7-(2,8-dimethylimidazo[1,2-b]pyridazin-6-yl)-2-(4-piperidyl)-[1,3,4]thiadiazolo[3,2-a]pyrimidin-5-one] — 27-fold lower, 196 nM
- Cc1cn2cc(-c3cc(=O)n4nc(C5CCNCC5)sc4n3)cc(F)c2n1 [Example 3, 7-(8-fluoro-2-methyl-imidazo[1,2-a]pyridin-6-yl)-2-(4-piperidyl)-[1,3,4]thiadiazolo[3,2-a]pyrimidin-5-one] — within 1.5-fold, 7400 nM
- Cc1cn2nc(-c3cc(=O)n4nc(C5(F)CCNCC5)sc4n3)cc(C)c2n1 [Example 8, 7-(2,8-dimethylimidazo[1,2-b]pyridazin-6-yl)-2-(4-fluoro-4-piperidyl)-[1,3,4]thiadiazolo[3,2-a]pyrimidin-5-one] — 17-fold lower, 315 nM
- Cc1cn2nc(-c3cc(=O)n4nc(N5C[C@@H](C)N[C@@H](C)C5)sc4n3)cc(C)c2n1 [Example 4, 7-(2,8-dimethylimidazo[1,2-b]pyridazin-6-yl)-2-[(3R,5S)-3,5-dimethylpiperazin-1-yl]-[1,3,4]thiadiazolo[3,2-a]pyrimidin-5-one] — 2.6-fold lower, 2040 nM
- Cc1cn2nc(-c3cc(=O)n4nc(N5CCNC6(CC6)C5)sc4n3)cc(C)c2n1 [Example 6, 2-(4,7-diazaspiro[2.5]octan-7-yl)-7-(2,8-dimethylimidazo[1,2-b]pyridazin-6-yl)-[1,3,4]thiadiazolo[3,2-a]pyrimidin-5-one] — within 1.5-fold, 5840 nM
- Cc1cn2nc(-c3cc(=O)n4nc(C5CCNCC5)sc4n3)cc(C(F)(F)F)c2n1 [Example 9, 7-[2-methyl-8-(trifluoromethyl)imidazo[1,2-b]pyridazin-6-yl]-2-(4-piperidyl)-[1,3,4]thiadiazolo[3,2-a]pyrimidin-5-one] — 7.5-fold lower, 700 nM
- Cc1cn2nc(-c3cc(=O)n4nc(N5CCNCC5)sc4n3)cc(C)c2n1 [Example 1, 7-(2,8-dimethylimidazo[1,2-b]pyridazin-6-yl)-2-piperazino-[1,3,4]thiadiazolo[3,2-a]pyrimidin-5-one] — 6.4-fold lower, 821 nM
